Experimental data from publication PMC8518382, “Identification of a Bromodomain‐like Region in 15‐Lipoxygenase‐1 Explains Its Nuclear Localization” (Angewandte Chemie (International Ed. in English), 2021).

What was measured:
15-LOX-1 = target: T1, 15-LOX-1 (Homo sapiens, UniProt P16050); experiment: ABP-based ELISA assay with A549 cell lysate, 15-LOX-1; format: biochemical; set-up: the endogenous LOXs were captured on an anti‐LOX antibody precoated 96‐well plate; endogenous in cells; host or cells: A549 cell lysate
T1 sequence (P16050 1-662): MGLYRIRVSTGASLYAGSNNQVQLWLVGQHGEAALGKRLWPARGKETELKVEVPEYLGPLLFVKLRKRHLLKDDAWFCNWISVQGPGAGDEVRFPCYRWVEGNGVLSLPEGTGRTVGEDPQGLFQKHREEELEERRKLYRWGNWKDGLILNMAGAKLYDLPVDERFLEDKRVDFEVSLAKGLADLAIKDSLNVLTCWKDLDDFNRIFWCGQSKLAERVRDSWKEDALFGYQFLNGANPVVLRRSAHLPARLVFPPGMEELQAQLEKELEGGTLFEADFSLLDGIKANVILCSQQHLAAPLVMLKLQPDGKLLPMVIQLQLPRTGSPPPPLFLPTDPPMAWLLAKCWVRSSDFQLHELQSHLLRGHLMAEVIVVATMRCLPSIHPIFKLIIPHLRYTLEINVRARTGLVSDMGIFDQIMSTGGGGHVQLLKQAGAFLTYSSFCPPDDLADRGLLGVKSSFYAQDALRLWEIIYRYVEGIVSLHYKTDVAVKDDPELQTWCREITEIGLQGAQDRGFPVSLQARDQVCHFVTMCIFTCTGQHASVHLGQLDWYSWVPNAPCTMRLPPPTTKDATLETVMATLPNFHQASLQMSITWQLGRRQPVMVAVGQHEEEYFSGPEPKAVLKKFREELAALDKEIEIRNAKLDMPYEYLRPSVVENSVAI
Procedure: (§1) A549 cell lysate was treated with a serial dilution of the respective inhibitor. Subsequently, samples were labeled by treatment with 1 μM of Labelox B for 1 min. […] Data are mean±s.d., n≥3 independent experiments. […]
(§2) 1.6. Immunoblotting Analysis […]
(§3) 1.7. ABPP-based LOX inhibitor specificity validation
(§4) A549 cells were lysed by RIPA buffer supplemented with 1x PIC. After sonication and centrifugation, the supernatant was collected, and the protein concentration was determined by a Pierce BCA Protein Assay Kit (Thermo Fisher Scientific, USA). The lysates were then diluted with PBS to 300 ng/µl and stored in -20°C. To label endogenous LOXs with Labelox B under the competition condition, 180 µl diluted lysates were incubated with 200 µl different LOX inhibitor solution (in PBS) with desired concentrations for 18 min to inhibit LOXs activity. Later, 20 µl of a 20 µM Labelox B (in PBS) was added and incubated shortly for 2 min, followed by adding 50 µl of a 0.5 M EDTA to stop the labeling reaction. The reaction mixture was 450 µl in total. Inhibitors and Labelox B were absent in positive and […]
(§5) negative control, respectively. To detect the competition labeling of Labelox B among different LOXs, a high-binding 96-well plate (Greiner, #M4561) was coated with 5-LOX (#ab169755, Abcam), 12-LOX […]
(§6) (1:500 dilution in PBS) for overnight at 4°C. After washing triply with 0.05%PBST, the plate was blocked with 2% (w/v) BSA in PBST. Subsequently, 100 µl of each reaction mixture was added to the LOX-antibody-coated wells. There are four LOX antibodies used for coating. Therefore, in total, 400 µl mixture is needed for each reaction. After one hour of incubation, LOXs were pulled down by antibodies accordingly. Next, 100 µl of HRP-conjugated streptavidin (1:2000 dilution in PBS, Thermo Fisher Scientific, USA) was added to each well to detect the D04 labeled LOXs among precipitated LOXs. After washing with PBST, 100 µl of mixed HRP substrate reagent (R&D Systems, Minneapolis, USA) was added, and the colorizing reaction was stopped by adding 100 µl of 1M sulfuric acid. The absorbance at […]

5-LOX = target: T2, 5-LOX (Homo sapiens, UniProt P09917); experiment: ABP-based ELISA assay with A549 cell lysate, 5-LOX; format: biochemical
T2 construct: the endogenous LOXs were captured on an anti‐LOX antibody precoated 96‐well plate; endogenous in cells; host or cells: A549 cell lysate
T2 sequence (P09917 1-674): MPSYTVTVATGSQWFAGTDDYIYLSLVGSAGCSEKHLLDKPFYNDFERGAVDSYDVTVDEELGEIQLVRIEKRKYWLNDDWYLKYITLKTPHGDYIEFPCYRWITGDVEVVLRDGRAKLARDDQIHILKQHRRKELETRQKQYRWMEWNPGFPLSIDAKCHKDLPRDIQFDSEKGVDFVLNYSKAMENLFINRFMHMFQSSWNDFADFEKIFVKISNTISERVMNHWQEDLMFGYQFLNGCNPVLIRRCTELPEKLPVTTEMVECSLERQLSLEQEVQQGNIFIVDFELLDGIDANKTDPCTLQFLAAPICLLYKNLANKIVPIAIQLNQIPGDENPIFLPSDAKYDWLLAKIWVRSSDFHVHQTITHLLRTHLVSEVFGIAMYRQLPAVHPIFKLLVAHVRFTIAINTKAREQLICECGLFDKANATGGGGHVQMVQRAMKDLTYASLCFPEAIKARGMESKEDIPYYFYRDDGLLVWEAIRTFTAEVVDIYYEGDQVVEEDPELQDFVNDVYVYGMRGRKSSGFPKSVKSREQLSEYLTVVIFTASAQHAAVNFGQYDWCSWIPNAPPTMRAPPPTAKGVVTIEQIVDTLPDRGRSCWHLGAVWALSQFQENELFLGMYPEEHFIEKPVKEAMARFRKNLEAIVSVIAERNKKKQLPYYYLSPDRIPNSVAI
Procedure: as §1, §2, §3, §4, §5, §6

12-LOX = target: T3, 12-LOX (Homo sapiens, UniProt P18054); experiment: ABP-based ELISA assay with A549 cell lysate, 12-LOX; format: biochemical
T3 construct: the endogenous LOXs were captured on an anti‐LOX antibody precoated 96‐well plate; endogenous in cells; host or cells: A549 cell lysate
T3 sequence (P18054 1-663): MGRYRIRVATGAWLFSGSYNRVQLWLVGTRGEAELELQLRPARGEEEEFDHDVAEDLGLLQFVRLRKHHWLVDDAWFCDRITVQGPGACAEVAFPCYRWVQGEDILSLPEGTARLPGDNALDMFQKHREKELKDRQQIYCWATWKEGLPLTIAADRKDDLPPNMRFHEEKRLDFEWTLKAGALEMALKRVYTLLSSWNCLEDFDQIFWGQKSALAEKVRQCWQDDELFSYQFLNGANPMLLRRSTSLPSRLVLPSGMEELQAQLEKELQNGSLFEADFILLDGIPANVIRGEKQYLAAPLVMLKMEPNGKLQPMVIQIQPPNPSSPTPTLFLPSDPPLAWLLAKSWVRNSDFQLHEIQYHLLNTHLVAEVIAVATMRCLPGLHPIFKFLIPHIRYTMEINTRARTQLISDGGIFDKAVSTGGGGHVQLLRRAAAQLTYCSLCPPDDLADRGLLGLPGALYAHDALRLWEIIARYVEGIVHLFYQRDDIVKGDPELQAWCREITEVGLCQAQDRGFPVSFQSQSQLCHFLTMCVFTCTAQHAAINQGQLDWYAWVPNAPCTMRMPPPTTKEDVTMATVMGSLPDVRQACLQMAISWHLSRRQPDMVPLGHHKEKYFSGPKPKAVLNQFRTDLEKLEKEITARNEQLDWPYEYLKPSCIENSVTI
Procedure: as §1, §2, §3, §4, §5, §6

H3K4Ac peptide = experiment: ELISA; ELISA formatted binding study between histone H3 peptides and 15‐LOX‐1; concentrations up to 20 μM; Hill‐slopes equal 1; not told which partner was immobilised
H3K56Ac peptide = experiment: as above

Kd (H3K4Ac peptide) [µM] | Kd (H3K56Ac peptide) [µM] | Compound | Effect on ABP labeling (15-LOX-1) | HillSlope Value (5-LOX) | HillSlope Value (12-LOX) | IC50 (12-LOX; 1 μM Labelox B) [µM]
 |  | CC(c1cc2ccccc2s1)N(O)C(N)=O (stereo not drawn) [Zileuton] | little or no effect | -0.48 | -0.47 | 554
> 20 | 1.65 | recombinant 15‐LOX‐1 (from UniProt P16050 1-662) (enzyme) |  |  |  | 
